The target in one data set is 5-HT5A (Homo sapiens, UniProt P47898). The experiment in a line: PDSP off-target radioligand binding.
A further data set deals with mouse CCI model. Description: mouse model of chronic neuropathic pain. Conditions: for reversal of mechano-allodynia (paw withdrawal threshold): day 7 post-sciatic nerve constriction, adult male mice.
A further data set has as its target T1, mP2Y14R (Mus musculus, UniProt Q9ESG6).
T1 sequence (Q9ESG6 1-338): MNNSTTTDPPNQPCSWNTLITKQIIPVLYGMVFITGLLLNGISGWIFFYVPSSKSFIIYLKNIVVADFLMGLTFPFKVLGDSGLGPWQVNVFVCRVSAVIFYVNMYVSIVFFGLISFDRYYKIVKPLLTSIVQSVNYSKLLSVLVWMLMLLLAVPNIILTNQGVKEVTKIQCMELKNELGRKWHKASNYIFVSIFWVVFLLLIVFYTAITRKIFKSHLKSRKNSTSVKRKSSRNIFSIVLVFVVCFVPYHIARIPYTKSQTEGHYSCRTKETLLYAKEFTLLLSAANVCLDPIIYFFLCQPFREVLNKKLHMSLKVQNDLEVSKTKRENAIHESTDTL
The experiment in a line: whole-cell fluorescent binding assay at mP2Y14R expressed in HEK-293 cells.

Data set [1] deals with T2, hP2Y14R (Homo sapiens, UniProt Q15391).
T2 sequence (Q15391 1-338): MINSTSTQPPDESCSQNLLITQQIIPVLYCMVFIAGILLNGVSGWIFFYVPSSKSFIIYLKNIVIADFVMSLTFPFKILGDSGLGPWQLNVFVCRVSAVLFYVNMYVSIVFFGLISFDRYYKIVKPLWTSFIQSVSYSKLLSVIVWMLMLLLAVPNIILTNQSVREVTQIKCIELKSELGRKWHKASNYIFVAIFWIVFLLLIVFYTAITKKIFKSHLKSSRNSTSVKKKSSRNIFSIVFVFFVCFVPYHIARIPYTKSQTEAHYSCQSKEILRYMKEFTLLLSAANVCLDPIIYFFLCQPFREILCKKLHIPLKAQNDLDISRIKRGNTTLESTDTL
Description: whole-cell fluorescent competitive binding assay.

Data set [2] concerns Nonhuman primate (chimpanzee) P2Y14R. The note with it: read-out: IC50 (P2Y14R), ref Belley et al.[15]; cited from earlier work.
The conditions of data set [3]: in mouse; cited from earlier work.
Data set [4] concerns protease-mediated mouse model of allergic asthma. The experiment in a line: protease-mediated mouse model of allergic asthma, BAL fluid cells. Conditions: 10 mg/kg i.p., C57BL/6J mice.
In data set [5] the test system is cardiac ischemia-reperfusion (I/R) injury. The experiment in a line: cardiac ischemia-reperfusion. The format is in vivo, mouse. Conditions: 2 mg/kg/day minipump.
For data set [6] the following is noted: male, Wistar, rat, in vivo, ip.
Data set [7] can be described thus: pharmacokinetics and tolerability in male Wistar rats.
Data set [8] concerns the target T2, hP2Y14R. The experiment in a line: fluorescent binding saturation study in whole CHO cells expressing hP2Y14R. The note with it: final concentrations of 53 of 2, 100, 500, and 20,000 nM.
A short description of data set [9]: pharmacokinetics of double prodrug 62 p.o. in female CD1 mice. Conditions: 62 by oral gavage (p.o.).
A short description of data set [10]: pharmacokinetics of mono-ester prodrug 63 s.c. in female CD1 mice. The note with it: 10 mg/kg s.c.
A further data set is described as follows: HPLC-based Log D7.4. In kind it is physicochemical. Conditions: from HPLC retention factors, calibration with five standards.
The next data set deals with σ1 receptor (Cavia porcellus, UniProt Q60492). Description: PDSP off-target radioligand binding. The note with it: read-out: Ki, σ1 receptor; NIMH PDSP.
σ1 receptor, sequence (Q60492 whole entry): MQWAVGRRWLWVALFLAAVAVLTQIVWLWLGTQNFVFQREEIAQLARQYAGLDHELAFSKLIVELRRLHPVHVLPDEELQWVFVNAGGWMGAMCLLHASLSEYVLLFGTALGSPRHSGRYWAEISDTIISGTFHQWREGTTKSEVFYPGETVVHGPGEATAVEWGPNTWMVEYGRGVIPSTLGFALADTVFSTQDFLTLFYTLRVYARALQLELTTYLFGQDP
Another data set deals with T3, σ2 receptor (Rattus norvegicus, UniProt Q5U3Y7).
T3 sequence (Q5U3Y7 1-176): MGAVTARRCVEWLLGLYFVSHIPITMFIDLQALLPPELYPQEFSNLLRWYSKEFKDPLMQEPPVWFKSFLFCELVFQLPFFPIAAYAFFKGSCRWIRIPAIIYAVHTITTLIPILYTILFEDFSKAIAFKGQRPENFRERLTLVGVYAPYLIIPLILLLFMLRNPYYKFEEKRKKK
The experiment in a line: PDSP off-target radioligand binding. The note with it: read-out: Ki, σ2 receptor; NIMH PDSP.

The next data set addresses serotonin 5-HT1B (Homo sapiens, UniProt P28222). The experiment in a line: PDSP off-target radioligand binding. The note with it: read-out: Ki, serotonin 5-HT1B; NIMH PDSP.

The values below come from article PMC10407959 (Journal of medicinal chemistry, 2023).

Entries after “also recorded” stand apart in the source; their conditions may differ. Like-named read-outs stand apart in the source and are kept apart here.

5-HT5A, sequence (P47898 whole entry, species assumed): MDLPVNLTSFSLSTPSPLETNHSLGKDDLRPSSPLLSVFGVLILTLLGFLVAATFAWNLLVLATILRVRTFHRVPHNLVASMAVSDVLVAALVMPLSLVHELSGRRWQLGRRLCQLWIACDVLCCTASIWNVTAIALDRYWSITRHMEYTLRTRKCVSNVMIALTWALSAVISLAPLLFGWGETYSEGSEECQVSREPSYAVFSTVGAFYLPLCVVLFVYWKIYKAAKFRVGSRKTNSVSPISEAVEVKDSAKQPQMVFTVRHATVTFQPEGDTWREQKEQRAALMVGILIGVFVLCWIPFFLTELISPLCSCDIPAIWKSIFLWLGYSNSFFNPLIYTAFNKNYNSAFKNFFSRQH
serotonin 5-HT1B, sequence (P28222 whole entry): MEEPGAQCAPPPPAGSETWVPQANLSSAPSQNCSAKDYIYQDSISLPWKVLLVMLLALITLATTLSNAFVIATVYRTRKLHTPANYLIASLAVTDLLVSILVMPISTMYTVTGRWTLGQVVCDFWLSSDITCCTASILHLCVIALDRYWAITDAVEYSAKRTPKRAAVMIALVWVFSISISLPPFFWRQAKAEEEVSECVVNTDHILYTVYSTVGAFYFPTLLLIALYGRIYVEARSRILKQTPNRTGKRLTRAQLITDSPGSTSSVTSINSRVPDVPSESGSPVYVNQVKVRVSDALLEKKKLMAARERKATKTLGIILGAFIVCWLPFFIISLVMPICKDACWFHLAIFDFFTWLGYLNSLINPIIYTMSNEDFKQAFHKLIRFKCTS

For the molecule `O=C(O)c1cc(-c2ccc(C3(O)C[C@H]4CNC[C@@H]4C3)cc2)c2ccc(-c3ccc(C(F)(F)F)cc3)cc2c1` (racemic) [compound 11, rac-4-(4-((3aR,6aR)-5-Hydroxyoctahydrocyclopenta[c]pyrrol-5-yl)phenyl)-7-(4-(trifluoromethyl)phenyl)-2-naphthoic Acid], the inhibition constant Ki at 5-HT5A is 2400 nM. For the same molecule, the “reversal of mechano-allodynia (paw withdrawal threshold)” value (from here on “reversal of mechano-allodynia”) with mouse CCI model (i.p. injection) is listed as “maintained over 3 h”.

With `O=C(O)c1cc(-c2ccc(C3=C[C@H]4CNC[C@@H]4C3)cc2)c2ccc(-c3ccc(C(F)(F)F)cc3)cc2c1` (racemic) [compound 12, rac-4-(4-((3aR,6aR)-1,2,3,3a,4,6a-Hexahydrocyclopenta[c]-pyrrol-5-yl)phenyl)-7-(4-(trifluoromethyl)phenyl)-2-naphthoic Acid], the “more potent at the mP2Y14R (vs human)” value on mP2Y14R was found to be 3 fold.

`O=C(Cc1ccc(C(F)(F)F)cc1)Nc1cccc(-c2nc3cc(Cl)ccc3o2)c1` [4a, reference compound]: the binding inhibition entry on hP2Y14R [1] (up to 100 μM, tracer 52, hP2Y14R-expressing CHO cells) is listed as “no binding inhibition”.

Take `O=C(O)c1cc(-c2ccc(C3CCNCC3)cc2)c2ccc(-c3ccc(C(F)(F)F)cc3)cc2c1` [compound 1, 4-(4-(Piperidin-4-yl)phenyl)-7-(4-(trifluoromethyl)phenyl)-2-naphthoic Acid, reference compound]: the 50% inhibitory concentration (IC50) in data set [2] is 2.2 nM. In data set [3], the oral bioavailability was 5 % F. In [4], the “airway eosinophilia (eosinophils in BAL fluid)” value (“airway eosinophilia” below) is listed as “reduce airway eosinophilia” and the “lymphocytes in the BAL fluid” value is on record as “trend toward lower lymphocytes”. Moreover, the “reversal of mechano-allodynia” value in the data set on mouse CCI model (10 μmol/kg, p.o. (oral gavage)) was “full reversal of mechano-allodynia; also recorded: reversed the mechano-allodynia”.

Regarding `O=C(O)c1cc(-c2ccc([C@]3(O)[C@@H]4CNC[C@H]3C4)cc2)c2ccc(-c3ccc(C(F)(F)F)cc3)cc2c1` [compound 15, 4-(4-((1R,5S,6r)-6-Hydroxy-3-azabicyclo[3.1.1]heptan-6-yl)-phenyl)-7-(4-(trifluoromethyl)phenyl)-2-naphthoic Acid], the “mP2Y14R affinity higher than reference antagonist 1” value on mP2Y14R is recorded as 4.5 fold. The “protection against heart I/R injury” value in data set [5] is listed as “no protection against heart I/R injury”. Also, the Maximal plasma concentration in data set [6] (1 mg/kg) was found to be 0.50 µM; in data set [6] (3 mg/kg) it was 1.3 µM; in [6] (10 mg/kg) it was 4.0 µM. For the same molecule, in data set [7] (male Wistar rats, 1, 3, and 10 mg/kg i.p. and 0.5 mg/kg i.v.), the “mortality or morbidity / tolerability” value is “well tolerated”. Also, the half-life in data set [7] (male, Wistar, rat, plasma, ip, 3 mg/kg) was 4.3 h. Also, in data set [4], the “airway eosinophilia” value is reported as “demonstrated significant protection”. Further, the “lymphocytes in the BAL fluid” value in [4] is “trend toward lower lymphocytes”. For the same molecule, the “reversal of mechano-allodynia” value is reported as “nearly complete protection at 1 h; also recorded: reversed the mechano-allodynia” in the data set on mouse CCI model (10 μmol/kg, p.o. (oral gavage)) and “full reversal of mechano-allodynia within 0.5 h” in the data set on mouse CCI model (i.p. injection). In the data set with mouse CCI model (oral gavage, 10 μmol/kg, 1 and 15 in the same CCI experiment), the “duration of the protection” value is given as “longer than protection by 1”. The “ligand efficiency (LE)” value at hP2Y14R [1] is reported as 0.311.

Turning to `O=C(O)c1cc(-c2ccc(C3CCCNCC3)cc2)c2ccc(-c3ccc(C(F)(F)F)cc3)cc2c1` (stereo not shown) [compound 16, 4-(4-(Azepan-4-yl)phenyl)-7-(4-(trifluoromethyl)phenyl)-2-naphthoic Acid], the Ki at 5-HT5A turned out to be 4800 nM. In the data set on mouse CCI model (i.p. injection), the “reversal of mechano-allodynia” value is “provided benefit”.

For `CCOC(=O)N1C[C@H]2C[C@@H](C1)[C@@]2(O)c1ccc(-c2cc(C(=O)OCC(=O)N(C)C)cc3cc(-c4ccc(C(F)(F)F)cc4)ccc23)cc1` [compound 50, Ethyl (1R,5S,6r)-6-(4-(3-((2-(Dimethylamino)-2-oxoethoxy)-carbonyl)-6-(4-(trifluoromethyl)phenyl)naphthalen-1-yl)phenyl)-6-hydroxy-3-azabicyclo[3.1.1]heptane-3-carboxylate], the “airway eosinophilia” value in data set [4] is “lack of activity”. Moreover, the “reversal of mechano-allodynia” value in the data set on mouse CCI model (10 μmol/kg, p.o. (oral gavage)) was “reversed the mechano-allodynia”.

For the molecule `C[Si]1(C)C2=CC(=[N+]3CCC3)C=CC2=C(c2cc(C(=O)NCCCCCCn3cc(CCCCN4CCC(c5ccc(-c6cc(C(=O)O)cc7cc(-c8ccc(C(F)(F)F)cc8)ccc67)cc5)CC4)nn3)ccc2C(=O)[O-])c2ccc(N3CCC3)cc21` [compound 53], on hP2Y14R [8], the “specific binding in whole CHO cells expressing the hP2Y14R” value is listed as “did not demonstrate potent specific binding”.

Regarding `CCOC(=O)N1CCC(c2ccc(-c3cc(C(=O)OCC(=O)N(C)C)cc4cc(-c5ccc(C(F)(F)F)cc5)ccc34)cc2)CC1` [compound 62, Ethyl 4-(4-(3-((2-(Dimethylamino)-2-oxoethoxy)carbonyl)-6-(4-(trifluoromethyl)phenyl)naphthalen-1-yl)phenyl)piperidine-1-carboxylate], in [9], the oral bioavailability was found to be 6.9 % F and the peak concentration is reported as ~ 2 μg/mL. In addition, the “reversal of mechano-allodynia” value in the data set with mouse CCI model (i.p. injection) is “provided benefit”.

As to `CN(C)C(=O)COC(=O)c1cc(-c2ccc([C@H]3C[C@H]4C[C@@H]3CN4)cc2)c2ccc(-c3ccc(C(F)(F)F)cc3)cc2c1` [compound 63, reference compound], the “in vivo cleavage of prodrug to active drug 2b” value in [10] was “rapid cleavage of the ester group”. The “reversal of mechano-allodynia” value in the data set with mouse CCI model (10 μmol/kg, p.o. (oral gavage)) is “fully efficacious within 1 h”.

Take `CCOC(=O)N1C[C@H]2C[C@@H]1C[C@@H]2c1ccc(-c2cc(C(=O)OCC(=O)N(C)C)cc3cc(-c4ccc(C(F)(F)F)cc4)ccc23)cc1` [compound 64, reference compound]: the “reversal of mechano-allodynia” value with mouse CCI model (i.p. injection) is recorded as “provided benefit”.

Consider “Mixture of 4-(4-(2,3,6,7-Tetrahydro-1H-azepin-4-yl)phenyl)-7-(4-(trifluoromethyl)phenyl)-2-naphthoic Acid and 4-(4-(2,5,6,7-Tetra-hydro-1H-azepin-4-yl)phenyl)-7-(4-(trifluoromethyl)phenyl)-2-naphthoic Acid [compound 17]”, for which, in “HPLC-based Log D7.4”, the “Log D7.4” value is 2.2±0.0. Besides, the inhibitory constant (Ki) at σ1 receptor stood at 840 nM; at σ2 receptor, 3900 nM; at serotonin 5-HT1B, 4100 nM; on 5-HT5A (read-out: Ki, 5-HT5A, NIMH PDSP) it was 4000 nM; at hP2Y14R [1], 6.92 nM. Besides, the 50% inhibitory concentration (IC50) on hP2Y14R [1] (read-out: IC50 (nM), affinity at hP2Y14R, whole-cell fluorescent binding, tracer 52 (20 nM), hP2Y14R-CHO cells, n = 3–4 unless noted) worked out at 11.9 ± 3.6 nM.
